The values below come from US10829458B2 (Araxes Pharma LLC, priority 2015, dated 2020).

SMILES strings stand for the structures.

The experiment concerns the target T1, KRAS G12C 1-169, his-tagged protein, GDP-loaded (Homo sapiens, UniProt P01116, G12C).
T1 construct: KRAS G12C 1-169, his-tagged protein, GDP-loaded
The experiment in a line: Biochemical assay: covalent modification of KRAS G12C measured by mass spectrometry (RapidFire/TOF or Q-Exactive). The settings on record: covalent binding to KRAS G12C; compounds of structure (I). The procedure, abridged:
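GDP-loaded his-tagged KRAS G12C 1-169 at 2 μM in 20 mM Hepes, 150 mM NaCl, 1 mM MgCl2 incubated at room temperature with compound (10, 30 or 100 μM final, 2% DMSO) for 30 min, 2 h or 24 h, then quenched with formic acid. Intact-protein LC-MS (RapidFire/TOF or Q-Exactive) with deconvolution quantified modified versus unmodified protein.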
Regarding `C=CC(=O)N1CCN(c2nc(OCc3cccnn3)nc3c(F)c(-c4c(O)cccc4F)c(Cl)cc23)CC1` [Example I-119, 1-(4-(6-chloro-8-fluoro-7-(2-fluoro-6-hydroxyphenyl)-2-(pyridazin-3-ylmethoxy)quinazolin-4-yl)piperazin-1-yl) prop-2-en-1-one], the Binding % result is “+ (+ indicates binding activity up to 50%)”.
For the compound `C=CC(=O)N1CCN(c2nc(NC3CCCN(C4CC4)C3)nc3c(F)c(-c4c(O)cccc4F)c(Cl)cc23)CC1` (centres unmarked) [Example I-120, 1-(4-(6-chloro-2-(1-cyclopropyl-piperidin-3-ylamino)-8-fluoro-7-(2-fluoro-6-hydroxyphenyl)quinazolin-4-yl)piperazin-1-yl) prop-2-en-1-one], the Binding % result was “++ (++ indicates binding activity from 50 to 90%)”.
Next, `C=CC(=O)N1CCN(c2nc(NC3CCCN(C(C)C)C3)nc3c(F)c(-c4c(O)cccc4F)c(Cl)cc23)CC1` (centres unmarked) [Example I-121, 1-(4-(6-chloro-8-fluoro-7-(2-fluoro-6-hydroxyphenyl)-2-(1-isopropyl-piperidin-3-ylamino)quinazolin-4-yl)piperazin-1-yl) prop-2-en-1-one]: “+++ (+++ indicates binding activity greater than 90%)”.
Consider `C=CC(=O)N1CCN(c2nc(OCc3cccc(C#N)n3)nc3c(F)c(-c4c(O)cccc4F)c(Cl)cc23)CC1` [Example I-122, 6-((4-(4-acryloyl-piperazin-1-yl)-6-chloro-8-fluoro-7-(2-fluoro-6-hydroxyphenyl)quinazolin-2-yloxy)methyl) picolinonitrile], for which the Binding % result was “+++ (+++ indicates binding activity greater than 90%)”.
Take `C=CC(=O)N1CCN(c2nc(OCC(F)(F)c3ccccn3)nc3c(F)c(-c4c(C)ccc5[nH]ncc45)c(Cl)cc23)CC1` [Example I-123, 1-(4-(6-chloro-2-(2,2-difluoro-2-(pyridin-2-yl)ethoxy)-8-fluoro-7-(5-methyl-1H-indazol-4-yl)quinazolin-4-yl)piperazin-1-yl) prop-2-en-1-one]: the Binding % entry is recorded as “+++ (+++ indicates binding activity greater than 90%)”.
For `C=CC(=O)N1CCN(c2nc(OCC(F)(F)c3ccccn3)nc3c(F)c(-c4c(O)cccc4F)c(Cl)cc23)CC1` [Example I-124, 1-(4-(6-chloro-2-(2,2-difluoro-2-(pyridin-2-yl)ethoxy)-8-fluoro-7-(2-fluoro-6-hydroxyphenyl)quinazolin-4-yl)piperazin-1-yl) prop-2-en-1-one], the Binding % entry is recorded as “+++ (+++ indicates binding activity greater than 90%)”.
Next, `C=CC(=O)N1CCN(c2nc(OCc3ccnnc3)nc3c(F)c(-c4c(O)cccc4F)c(Cl)cc23)CC1` [Example I-127, 1-(4-(6-chloro-8-fluoro-7-(2-fluoro-6-hydroxyphenyl)-2-(pyridazin-4-ylmethoxy)quinazolin-4-yl)piperazin-1-yl) prop-2-en-1-one]: “+++ (+++ indicates binding activity greater than 90%)”.
Next, `C=CC(=O)N1CCN(c2nc(NC3CCN(CC4CC4)CC3)nc3c(F)c(-c4c(C)ccc5[nH]ncc45)c(Cl)cc23)CC1` [Example I-128, 1-(4-(6-chloro-2-(1-(cyclo-propylmethyl)piperidin-4-ylamino)-8-fluoro-7-(5-methyl-1H-indazol-4-yl)quinazolin-4-yl)piperazin-1-yl) prop-2-en-1-one]: “+++ (+++ indicates binding activity greater than 90%)”; `C=CC(=O)N1CCN(c2nc(OCc3ccc(C#N)nc3)nc3c(F)c(-c4c(O)cccc4F)c(Cl)cc23)CC1` [Example I-129, 5-((4-(4-acryloyl-piperazin-1-yl)-6-chloro-8-fluoro-7-(2-fluoro-6-hydroxyphenyl)quinazolin-2-yloxy)methyl) picolinonitrile]: “+++ (+++ indicates binding activity greater than 90%)”; `C=CC(=O)N1CCN(c2nc(OCCN(CC)CC)nc3c(F)c(-c4c(C)ccc5[nH]ncc45)c(Cl)cc23)CC1` [Example I-130, 1-(4-(6-chloro-2-(2-(diethyl-amino)ethoxy)-8-fluoro-7-(5-methyl-1H-indazol-4-yl)quinazolin-4-yl)piperazin-1-yl) prop-2-en-1-one]: “+++ (+++ indicates binding activity greater than 90%)”.
`C=CC(=O)N1CCN(c2nc(N3CC(N(CC)CC)C3)nc3c(F)c(-c4c(O)cccc4F)c(Cl)cc23)CC1` [Example I-131, 1-(4-(6-chloro-2-(3-(diethyl-amino)azetidin-1-yl)-8-fluoro-7-(2-fluoro-6-hydroxyphenyl)quinazolin-4-yl)piperazin-1-yl) prop-2-en-1-one]: the Binding % entry is listed as “+++ (+++ indicates binding activity greater than 90%)”.
The result for `C=CC(=O)N1CCN(c2nc(NC3CCN(C4CCC4)CC3)nc3c(F)c(-c4c(C)ccc5[nH]ncc45)c(Cl)cc23)CC1` [Example I-132, 1-(4-(6-chloro-2-(1-cyclobutyl-piperidin-4-ylamino)-8-fluoro-7-(5-methyl-1H-indazol-4-yl)quinazolin-4-yl)piperazin-1-yl) prop-2-en-1-one] reads “+++ (+++ indicates binding activity greater than 90%)”.
In the case of `C=CC(=O)N1CCN(c2nc(NC3CCCN(CC(F)(F)F)C3)nc3c(F)c(-c4c(O)cccc4F)c(Cl)cc23)CC1` (centres unmarked) [Example I-133, 1-(4-(6-chloro-8-fluoro-7-(2-fluoro-6-hydroxyphenyl)-2-(1-(2,2,2-trifluoroethyl)piperidin-3-ylamino)quinazolin-4-yl)piperazin-1-yl) prop-2-en-1-one], the Binding % entry was “++ (++ indicates binding activity from 50 to 90%)”.
Next, `C=CC(=O)N1CCN(c2nc(NC3CCCN(CC4CC4)C3)nc3c(F)c(-c4c(O)cccc4F)c(Cl)cc23)CC1` (centres unmarked) [Example I-134, 1-(4-(6-chloro-2-(1-(cyclopropyl-methyl)piperidin-3-ylamino)-8-fluoro-7-(2-fluoro-6-hydroxyphenyl)quinazolin-4-yl)piperazin-1-yl) prop-2-en-1-one]: “+++ (+++ indicates binding activity greater than 90%)”; `C=CC(=O)N1CCN(c2nc(CCNc3ncccn3)nc3c(F)c(-c4c(O)cccc4F)c(Cl)cc23)CC1` [Example I-135, 1-(4-(6-chloro-8-fluoro-7-(2-fluoro-6-hydroxyphenyl)-2-(2-(pyrimidin-2-ylamino)ethyl)quinazolin-4-yl)piperazin-1-yl) prop-2-en-1-one]: “+++ (+++ indicates binding activity greater than 90%)”; `C=CC(=O)N1CCN(c2nc(NC3CCN(C(C)C)CC3)nc3c(F)c(-c4c(C)ccc5[nH]ncc45)c(Cl)cc23)CC1` [Example I-136, 1-(4-(6-chloro-8-fluoro-2-(1-isopropyl-piperidin-4-ylamino)-7-(5-methyl-1H-indazol-4-yl)quinazolin-4-yl)piperazin-1-yl) prop-2-en-1-one]: “+++ (+++ indicates binding activity greater than 90%)”.
As to `C=CC(=O)N1CCN(c2nc(NC3CCN(C4COC4)CC3)nc3c(F)c(-c4c(C)ccc5[nH]ncc45)c(Cl)cc23)CC1` [Example I-137, 1-(4-(6-chloro-8-fluoro-7-(5-methyl-1H-indazol-4-yl)-2-(1-(oxetan-3-yl)piperidin-4-ylamino)quinazolin-4-yl)piperazin-1-yl) prop-2-en-1-one], the Binding % entry is on record as “+++ (+++ indicates binding activity greater than 90%)”.
The result for `C=CC(=O)N1CCN(c2nc(OC3CCN(C4CC4)CC3)nc3c(F)c(-c4c(C)ccc5[nH]ncc45)c(Cl)cc23)CC1` [Example I-138] reads “+++ (+++ indicates binding activity greater than 90%)”; that for `C=CC(=O)N1CCN(c2nc(OCCc3ncccn3)nc3c(F)c(-c4c(C)ccc5[nH]ncc45)c(Cl)cc23)CC1` [Example I-139, 1-(4-(6-chloro-8-fluoro-7-(5-methyl-1H-indazol-4-yl)-2-(2-(pyrimidin-2-yl)ethoxy)quinazolin-4-yl)piperazin-1-yl) prop-2-en-1-one], “+++ (+++ indicates binding activity greater than 90%)”; that for `C=CC(=O)N1CCN(c2nc(OCCc3ncccn3)nc3c(F)c(-c4c(O)cccc4F)c(Cl)cc23)CC1` [Example I-140, 1-(4-(6-chloro-8-fluoro-7-(2-fluoro-6-hydroxyphenyl)-2-(2-(pyrimidin-2-yl)ethoxy)quinazolin-4-yl)piperazin-1-yl) prop-2-en-1-one], “+++ (+++ indicates binding activity greater than 90%)”.
Next, `C=CC(=O)N1CCN(c2nc(NCCN3CC(F)(F)C3)nc3c(F)c(-c4c(C)ccc5[nH]ncc45)c(Cl)cc23)CC1` [Example I-141, 1-(4-(6-chloro-2-(2-(3,3-difluoro-azetidin-1-yl)ethylamino)-8-fluoro-7-(5-methyl-1H-indazol-4-yl)quinazolin-4-yl)piperazin-1-yl) prop-2-en-1-one]: “+++ (+++ indicates binding activity greater than 90%)”.
In the case of `C=CC(=O)N1CCN(c2nc(NCCc3ccccn3)nc3c(F)c(-c4c(C)ccc5[nH]ncc45)c(Cl)cc23)CC1` [Example I-142, 1-(4-(6-chloro-8-fluoro-7-(5-methyl-1H-indazol-4-yl)-2-(2-(pyridin-2-yl)ethylamino)quinazolin-4-yl)piperazin-1-yl) prop-2-en-1-one], the Binding % entry was “+++ (+++ indicates binding activity greater than 90%)”.
`C=CC(=O)N1CCN(c2nc(NCCN3CC(F)(F)C3)nc3c(F)c(-c4c(O)cccc4F)c(Cl)cc23)CC1` [Example I-143, 1-(4-(6-chloro-2-(2-(3,3-difluoro-azetidin-1-yl)ethylamino)-8-fluoro-7-(2-fluoro-6-hydroxyphenyl)quinazolin-4-yl)piperazin-1-yl) prop-2-en-1-one]: the Binding % entry is “+++ (+++ indicates binding activity greater than 90%)”.
